Entries after “also recorded” stand apart in the source; their conditions may differ. *1 amine or outer side, *2 acyl side, *3 side chain or, on linkers, in order; H or OH if unused. Where a SMILES comes first, the peptide text is derived from it. Bridges are numbered along the chain shown (N, C = ends). [ ]: non-standard residue; d: D form. The star is where a group is joined. NODAGA = O=C(O)CN1CCN(CC(=O)O)CCN(C(CCC(=O)*)C(=O)O)CC1; Tyr(3-Cl) = N[C@@H](Cc1ccc(O)c(Cl)c1)C(=O)O; X1 = O=C([C@@H]1CC(O)CN1[*:1])[*:2]
Experiments:
[1] = Blood analysis in rat model of carotid artery crush injury (blood clearance); format: in vivo; conditions: relative to the other compounds compared
Method: (§1) Rat carotid endothelial injury model in vivo studies were conducted, wherein the common carotid artery is isolated and crushed briefly with a hemostat, resulting in mural thrombus formation at the site of the crush. The vessel wall fibrin is then imaged with our PET compounds. All six compounds were evaluated in this model.
(§2) Adult male Wistar rats were anesthetized by isoflurane (1-2% in medical air). Body temperature was maintained at 37° C. using a thermo-regulated heating pad. The right femoral vein and artery were cannulated for compound injection and blood sampling, respectively. Endothelial injury was induced by crush injury to the right common carotid artery (1-2 cm proximal to the carotid bifurcation) by clamping the vessel with a hemostat for 5 minutes. Immediately following the surgical procedures, rats were placed in a micro-PET/CT scanner. Compound (200-600 μL) was injected, PET-CT images were acquired, and blood samples were drawn from the femoral artery prior to compound injection and at 2, 5, 10, 15, 30, 60, 90, 120 min post injection. Tissues were harvested at the end for ex vivo analyses.
Blood samples were drawn from prior to probe injection and at 2, 5, 10, 15, 30, 60, 90, 120 min post injection. Each blood sample was weighed and counted using a gamma-counter. The activity in each sample was calculated as percent injected dose (% ID) per gram of tissue.

vessel wall fibrin = biological target: T1, vessel wall fibrin (Rattus norvegicus, UniProt P02680+P06399+P14480); assay: Autoradiography / PET imaging of injured ipsi- and contra-lateral carotid arteries; format: in vivo; conditions: rat injured vs contra-lateral carotid; ^68Ga-19 vs ^68Ga-20
T1 construct: resulting in mural thrombus formation at the site of the crush; from tissue; host or cells: injured common carotid artery of Wistar rats (in vivo and ex vivo autoradiography)
T1 sequence (P06399 37-782 limits assumed): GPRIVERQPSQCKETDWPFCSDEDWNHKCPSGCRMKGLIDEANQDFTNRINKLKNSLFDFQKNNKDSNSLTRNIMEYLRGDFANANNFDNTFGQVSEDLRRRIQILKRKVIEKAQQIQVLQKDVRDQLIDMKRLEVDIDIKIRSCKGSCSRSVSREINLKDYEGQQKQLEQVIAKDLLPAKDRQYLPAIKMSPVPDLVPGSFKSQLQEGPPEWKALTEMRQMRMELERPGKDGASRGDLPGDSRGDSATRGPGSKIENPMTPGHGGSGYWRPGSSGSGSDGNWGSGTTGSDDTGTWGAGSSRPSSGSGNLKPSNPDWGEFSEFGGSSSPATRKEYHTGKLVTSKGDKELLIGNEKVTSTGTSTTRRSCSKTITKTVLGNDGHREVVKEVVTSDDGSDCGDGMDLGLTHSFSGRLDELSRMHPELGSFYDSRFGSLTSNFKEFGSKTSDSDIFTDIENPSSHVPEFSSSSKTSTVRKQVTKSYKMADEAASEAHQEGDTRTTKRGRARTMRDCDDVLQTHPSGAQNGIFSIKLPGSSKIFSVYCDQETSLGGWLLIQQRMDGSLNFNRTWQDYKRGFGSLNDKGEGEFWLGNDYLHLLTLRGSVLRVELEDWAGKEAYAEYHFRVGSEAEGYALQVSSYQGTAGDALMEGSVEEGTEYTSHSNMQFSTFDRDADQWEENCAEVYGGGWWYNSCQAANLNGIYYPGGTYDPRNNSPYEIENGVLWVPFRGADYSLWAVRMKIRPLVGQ
T1 sequence (P14480 33-479 limits assumed): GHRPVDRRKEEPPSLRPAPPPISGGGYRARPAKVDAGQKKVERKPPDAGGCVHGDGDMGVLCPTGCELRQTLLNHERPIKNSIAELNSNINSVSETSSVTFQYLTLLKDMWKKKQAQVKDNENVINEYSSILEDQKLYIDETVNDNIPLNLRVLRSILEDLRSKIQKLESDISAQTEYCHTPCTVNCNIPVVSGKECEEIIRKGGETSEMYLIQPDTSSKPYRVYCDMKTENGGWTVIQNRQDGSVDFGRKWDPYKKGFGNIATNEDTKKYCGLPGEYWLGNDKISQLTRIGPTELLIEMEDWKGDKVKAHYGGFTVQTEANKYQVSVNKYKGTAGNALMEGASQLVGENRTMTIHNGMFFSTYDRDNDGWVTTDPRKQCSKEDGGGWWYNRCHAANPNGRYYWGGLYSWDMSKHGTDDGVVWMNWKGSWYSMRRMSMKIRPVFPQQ
T1 sequence (P02680 27-445 limits assumed): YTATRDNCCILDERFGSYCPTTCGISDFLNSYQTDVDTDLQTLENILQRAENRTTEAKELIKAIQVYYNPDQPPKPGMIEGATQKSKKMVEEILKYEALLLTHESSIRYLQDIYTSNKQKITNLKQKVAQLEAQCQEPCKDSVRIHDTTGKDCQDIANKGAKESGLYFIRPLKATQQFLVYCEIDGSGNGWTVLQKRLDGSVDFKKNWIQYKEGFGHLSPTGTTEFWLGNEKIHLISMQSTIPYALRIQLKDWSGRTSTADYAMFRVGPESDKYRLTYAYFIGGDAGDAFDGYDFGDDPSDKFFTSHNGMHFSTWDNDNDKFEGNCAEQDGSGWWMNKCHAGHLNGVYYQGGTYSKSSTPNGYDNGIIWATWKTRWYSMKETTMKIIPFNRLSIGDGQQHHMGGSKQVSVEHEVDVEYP
Method: as §1, §2
The injured ipsi- and the contra-lateral carotid arteries were placed on a multipurpose film and imaged using a Perkin-Elmer Cyclone Plus Storage Phosphor system. […]

Fibrin clots = assay: PET in rabbit model of high risk plaque (plaque-rupture model); format: in vivo
From the text: Mean SUV values, TBRvc and TBRm were compared across all rabbits after in vivo PET.

[2] = system: fibrin in human carotid endarterectomy specimens; assay: Ex vivo functional probe assay of human carotid endarterectomy specimens; conditions: compared to non-binding probe ^68Ga-22; 12 patients; P<0.05
Method: Twelve discarded surgical specimens from asymptomatic patients who underwent elective carotid endarterectomy at Massachusetts General Hospital were obtained and used in ex vivo studies described herein. Samples were processed for histology, autoradiography, and probe binding assay as described above (Examples 6 and 13).
Discarded surgical specimens were embedded in optimal cutting temperature compound, snap-frozen, and stored at −80° C. before further analysis. Alternating consecutive cryosections were processed for histology and autoradiography; triplicate tissue samples with 50 μm gap in between were used for these experiments. The remaining tissue samples were processed for functional probe assay.
For functional probe assay, samples were thawed at room temperature, weighed (8-15 mg per sample), cut into duplicates, and placed into tubes containing 111-148 kBq (3-4 μCi)^68Ga-20 or the non-fibrin binding control probe ^68Ga-22 in 1 mL PBS. The mixture was shaken for 45 minutes at room temperature. After centrifugation, supernatant (sup-1) was removed, kept for further analysis, and tissue samples were washed with PBS (1 mL); this procedure was repeated twice for each sample. Wash solutions (wash-1 and wash-2) were kept for further analysis. Activities in tissue samples and solutions sol-1, wash-1, and wash-2 were measured on a gamma counter. Percent uptake was calculated as follows: […]

Structure (SMILES): CC[C@H](C)[C@H](NC(=O)[C@H](Cc1cnc[nH]1)NC(=O)[C@@H]1CSSC[C@H](NC(=O)[C@@H](CCC(=O)O)NC(=O)[C@H](Cc2ccc(O)cc2)NC(=O)CCC(C(=O)O)N2CCN(CC(=O)O)CCN(CC(=O)O)CC2)C(=O)N2CC(O)C[C@H]2C(=O)N[C@@H](Cc2ccc(O)c(Cl)c2)C(=O)NCC(=O)N[C@@H](CC(C)C)C(=O)N1)C(=O)N[C@H](CCC(N)=O)C(N)=O (stereo partly shown) [Compound ^68Ga-20, metal not drawn] ({NODAGA}-Y[dE]C[X1][Tyr(3-Cl)]GLCHI[dQ]-NH2; disulfide 3-8)
- blood clearance ([1]; rat carotid artery crush injury, 2-120 min post injection): faster blood clearance
- metabolic stability ([1]; rat): better metabolic stability
- ipsi: contra ratios (vessel wall fibrin): better ipsi: contra ratios
- plaque rupture-to-control SUV ratios (Fibrin clots; across post injection imaging time points): higher plaque rupture-to-control SUV ratios were seen with longer post injection imaging time points
- PET-MR uptake along the aorta (Fibrin clots; plaque rupture group vs control): Fibrin clots were seen as uptake spots along the aorta on the plaque rupture group
- validation in rabbit model of high risk plaque (Fibrin clots; plaque-rupture model, in vivo PET): successfully validated
- uptake, functional probe assay [2]: variable but significantly increased; also recorded: significantly higher uptake

— patent US20240115744A1, “FIBRIN-BINDING COMPOUNDS FOR IMAGING AND TREATMENT” (Collagen Medical, LLC, priority 2019, published 2024)
